These results are taken from article PMC12136037, “Type II kinase inhibitors that target Parkinson’s disease–associated LRRK2” (Science Advances, 2025).

Common to all, as to assay: DSF 100 kinase selectivity screen;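 also: compound tested at 20 µM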
Common to all, as to format: binding

The target in experiment [1] is T1, ~100 representative kinases (Homo sapiens, UniProt P19784).
T1 construct: Recombinant protein kinase domains with a concentration of 2 μM
The following applies: Protein CK2A2; average of three replicates. In a few lines:
(§1)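 Each kinase domain, at 2 μM, is mixed with 20 μM test compound and SYPRO Orange in Hepes (20 mM, pH 7.5) with 500 mM NaCl. Temperature is then raised at 3°C/min and fluorescence-monitored unfolding yields the melting temperature change, ΔTm in degrees Celsius.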

Experiment [2] concerns the target T2, ~100 representative kinases (Homo sapiens, UniProt P51955).
T2 construct: Recombinant protein kinase domains with a concentration of 2 μM
T2 sequence (P51955 1-445): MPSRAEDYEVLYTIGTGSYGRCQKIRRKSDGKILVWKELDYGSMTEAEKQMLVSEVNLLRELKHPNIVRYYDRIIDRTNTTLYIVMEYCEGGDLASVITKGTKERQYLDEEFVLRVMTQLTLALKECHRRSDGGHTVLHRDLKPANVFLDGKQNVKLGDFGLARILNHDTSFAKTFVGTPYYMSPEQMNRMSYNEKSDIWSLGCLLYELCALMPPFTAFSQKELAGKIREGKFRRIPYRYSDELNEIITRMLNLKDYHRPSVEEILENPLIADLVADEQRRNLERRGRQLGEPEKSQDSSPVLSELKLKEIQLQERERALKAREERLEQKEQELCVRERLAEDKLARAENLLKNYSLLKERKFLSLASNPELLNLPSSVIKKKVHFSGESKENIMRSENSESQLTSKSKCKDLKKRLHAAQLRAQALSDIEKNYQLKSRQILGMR
As to conditions: protein NEK2; average of three replicates. The procedure, abridged:
as §1

Experiment [3] addresses T3, ~100 representative kinases (Homo sapiens, UniProt Q13043).
T3 construct: Recombinant protein kinase domains with a concentration of 2 μM
T3 sequence (Q13043 1-487): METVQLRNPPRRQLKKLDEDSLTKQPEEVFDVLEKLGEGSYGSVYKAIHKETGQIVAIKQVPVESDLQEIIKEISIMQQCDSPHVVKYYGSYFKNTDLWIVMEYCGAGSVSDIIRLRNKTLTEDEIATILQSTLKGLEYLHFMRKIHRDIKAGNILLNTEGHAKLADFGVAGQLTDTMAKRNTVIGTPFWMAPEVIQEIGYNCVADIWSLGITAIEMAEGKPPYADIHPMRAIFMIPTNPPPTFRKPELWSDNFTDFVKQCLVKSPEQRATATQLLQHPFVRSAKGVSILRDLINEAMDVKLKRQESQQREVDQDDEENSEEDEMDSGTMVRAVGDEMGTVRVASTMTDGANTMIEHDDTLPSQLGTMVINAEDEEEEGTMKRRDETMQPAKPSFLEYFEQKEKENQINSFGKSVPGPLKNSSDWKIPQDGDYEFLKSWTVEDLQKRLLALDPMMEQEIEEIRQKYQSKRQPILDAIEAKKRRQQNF
As to conditions: Protein STK4; DSF; average of three replicates. The procedure, abridged:
as §1

The target in experiment [4] is T4, ~100 representative kinases (Homo sapiens, UniProt P54762).
T4 construct: Recombinant protein kinase domains with a concentration of 2 μM
T4 sequence (P54762 18-984): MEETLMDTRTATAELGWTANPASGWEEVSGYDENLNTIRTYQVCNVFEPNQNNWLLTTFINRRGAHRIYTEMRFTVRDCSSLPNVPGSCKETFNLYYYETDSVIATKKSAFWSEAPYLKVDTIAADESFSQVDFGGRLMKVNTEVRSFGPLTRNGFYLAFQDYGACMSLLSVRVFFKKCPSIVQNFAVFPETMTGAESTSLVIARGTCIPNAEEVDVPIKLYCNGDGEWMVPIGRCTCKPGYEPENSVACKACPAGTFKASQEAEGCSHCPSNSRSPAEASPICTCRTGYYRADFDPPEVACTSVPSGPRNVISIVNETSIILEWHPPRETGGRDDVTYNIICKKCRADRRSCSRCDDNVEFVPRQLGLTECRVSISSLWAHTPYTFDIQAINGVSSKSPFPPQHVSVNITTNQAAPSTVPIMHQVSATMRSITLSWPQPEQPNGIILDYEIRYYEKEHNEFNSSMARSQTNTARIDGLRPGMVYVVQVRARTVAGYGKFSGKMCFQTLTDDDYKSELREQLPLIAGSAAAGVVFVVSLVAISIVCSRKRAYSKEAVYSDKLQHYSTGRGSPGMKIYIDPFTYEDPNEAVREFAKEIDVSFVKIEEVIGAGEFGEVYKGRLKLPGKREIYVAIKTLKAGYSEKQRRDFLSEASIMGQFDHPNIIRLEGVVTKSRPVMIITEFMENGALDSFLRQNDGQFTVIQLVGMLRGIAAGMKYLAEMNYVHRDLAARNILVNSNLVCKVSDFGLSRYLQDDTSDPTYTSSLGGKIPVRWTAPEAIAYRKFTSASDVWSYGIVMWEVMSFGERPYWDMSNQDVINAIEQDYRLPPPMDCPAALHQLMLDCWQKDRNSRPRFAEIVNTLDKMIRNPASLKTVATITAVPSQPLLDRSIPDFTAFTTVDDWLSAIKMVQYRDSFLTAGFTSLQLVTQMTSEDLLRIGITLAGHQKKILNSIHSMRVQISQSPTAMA
As to conditions: Protein EPHB1; average of three replicates. The procedure, abridged:
as §1

In experiment [5] the target is T5, ~100 representative kinases (Homo sapiens, UniProt P17948).
T5 construct: Recombinant protein kinase domains with a concentration of 2 μM
T5 sequence (P17948 27-1338): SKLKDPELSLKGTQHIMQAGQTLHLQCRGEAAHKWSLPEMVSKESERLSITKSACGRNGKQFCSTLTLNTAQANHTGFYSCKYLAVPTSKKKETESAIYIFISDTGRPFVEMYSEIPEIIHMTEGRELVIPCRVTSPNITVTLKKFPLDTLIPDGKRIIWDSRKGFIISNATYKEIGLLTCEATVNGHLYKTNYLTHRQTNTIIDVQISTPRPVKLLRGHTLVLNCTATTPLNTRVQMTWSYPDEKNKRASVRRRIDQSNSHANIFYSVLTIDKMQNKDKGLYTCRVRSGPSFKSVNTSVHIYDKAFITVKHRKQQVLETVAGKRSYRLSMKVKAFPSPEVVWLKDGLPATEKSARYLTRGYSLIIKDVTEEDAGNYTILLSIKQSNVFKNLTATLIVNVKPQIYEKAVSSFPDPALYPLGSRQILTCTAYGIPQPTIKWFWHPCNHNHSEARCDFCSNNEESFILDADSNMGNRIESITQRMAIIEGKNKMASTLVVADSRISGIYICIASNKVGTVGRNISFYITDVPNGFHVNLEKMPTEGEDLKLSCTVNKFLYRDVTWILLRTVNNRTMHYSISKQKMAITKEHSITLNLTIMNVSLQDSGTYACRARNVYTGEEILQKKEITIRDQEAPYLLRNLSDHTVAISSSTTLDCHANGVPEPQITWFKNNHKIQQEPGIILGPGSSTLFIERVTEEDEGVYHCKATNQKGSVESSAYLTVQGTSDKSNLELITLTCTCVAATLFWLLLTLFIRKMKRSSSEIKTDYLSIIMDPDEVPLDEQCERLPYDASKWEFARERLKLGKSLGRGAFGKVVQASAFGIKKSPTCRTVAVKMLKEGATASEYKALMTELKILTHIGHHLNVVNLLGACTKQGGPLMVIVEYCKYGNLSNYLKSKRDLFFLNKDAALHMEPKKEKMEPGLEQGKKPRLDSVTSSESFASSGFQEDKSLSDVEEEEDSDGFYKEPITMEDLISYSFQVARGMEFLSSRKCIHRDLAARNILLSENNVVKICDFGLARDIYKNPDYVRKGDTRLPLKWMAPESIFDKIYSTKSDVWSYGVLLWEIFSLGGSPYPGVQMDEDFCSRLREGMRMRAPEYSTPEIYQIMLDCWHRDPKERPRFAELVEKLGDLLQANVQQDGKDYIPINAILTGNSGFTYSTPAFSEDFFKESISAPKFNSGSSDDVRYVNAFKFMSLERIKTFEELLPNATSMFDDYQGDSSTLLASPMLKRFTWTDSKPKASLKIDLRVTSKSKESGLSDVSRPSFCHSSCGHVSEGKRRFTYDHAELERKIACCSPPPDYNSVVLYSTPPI
As to conditions: protein FLT1; average of three replicates. In a few lines: as §1

In experiment [6] the target is T6, ~100 representative kinases (Homo sapiens, UniProt Q9NSY1).
T6 construct: Recombinant protein kinase domains with a concentration of 2 μM
T6 sequence (Q9NSY1 whole entry, the tested form may be a part): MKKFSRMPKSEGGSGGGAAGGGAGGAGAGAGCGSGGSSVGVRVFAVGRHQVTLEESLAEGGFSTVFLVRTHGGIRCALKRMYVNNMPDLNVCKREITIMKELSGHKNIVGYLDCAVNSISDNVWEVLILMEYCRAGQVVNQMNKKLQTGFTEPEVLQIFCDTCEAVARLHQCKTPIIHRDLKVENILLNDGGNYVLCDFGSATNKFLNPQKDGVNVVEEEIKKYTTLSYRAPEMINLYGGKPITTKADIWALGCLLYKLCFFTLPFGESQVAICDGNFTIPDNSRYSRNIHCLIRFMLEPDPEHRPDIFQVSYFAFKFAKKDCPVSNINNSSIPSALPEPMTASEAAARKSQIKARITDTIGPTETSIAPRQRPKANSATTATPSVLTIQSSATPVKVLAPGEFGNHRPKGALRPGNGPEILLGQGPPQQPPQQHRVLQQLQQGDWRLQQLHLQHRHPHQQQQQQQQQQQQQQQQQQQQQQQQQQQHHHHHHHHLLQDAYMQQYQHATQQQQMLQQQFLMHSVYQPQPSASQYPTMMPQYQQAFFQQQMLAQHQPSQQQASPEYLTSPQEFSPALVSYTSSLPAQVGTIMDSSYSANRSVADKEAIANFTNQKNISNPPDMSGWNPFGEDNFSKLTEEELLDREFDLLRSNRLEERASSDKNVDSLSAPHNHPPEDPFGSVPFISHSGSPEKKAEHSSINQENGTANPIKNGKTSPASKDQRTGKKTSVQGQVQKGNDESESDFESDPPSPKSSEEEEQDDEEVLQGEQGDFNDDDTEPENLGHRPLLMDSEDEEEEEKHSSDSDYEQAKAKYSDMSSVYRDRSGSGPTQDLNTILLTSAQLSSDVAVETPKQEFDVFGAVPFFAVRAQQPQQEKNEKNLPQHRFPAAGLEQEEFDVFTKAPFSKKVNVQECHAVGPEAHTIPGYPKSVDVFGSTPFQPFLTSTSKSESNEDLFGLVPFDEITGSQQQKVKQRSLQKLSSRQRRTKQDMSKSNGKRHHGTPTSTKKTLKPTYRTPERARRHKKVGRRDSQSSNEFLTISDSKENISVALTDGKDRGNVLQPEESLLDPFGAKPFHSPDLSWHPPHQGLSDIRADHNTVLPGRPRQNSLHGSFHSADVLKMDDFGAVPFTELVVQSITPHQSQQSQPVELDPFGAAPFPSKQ
The following applies: Protein BMP2K; average of three replicates. In a few lines:
as §1

In experiment [7] the target is T7, ~100 representative kinases (Homo sapiens, UniProt Q8TDX7).
T7 construct: Recombinant protein kinase domains with a concentration of 2 μM
T7 sequence (Q8TDX7 whole entry, the tested form may be a part): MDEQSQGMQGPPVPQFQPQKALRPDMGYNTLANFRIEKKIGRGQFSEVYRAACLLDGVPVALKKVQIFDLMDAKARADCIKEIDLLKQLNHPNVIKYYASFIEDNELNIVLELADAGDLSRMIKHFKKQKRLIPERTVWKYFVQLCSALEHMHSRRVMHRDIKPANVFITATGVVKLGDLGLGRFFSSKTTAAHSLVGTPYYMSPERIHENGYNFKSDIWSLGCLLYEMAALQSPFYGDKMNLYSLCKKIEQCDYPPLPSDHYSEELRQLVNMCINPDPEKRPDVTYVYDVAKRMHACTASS
As to conditions: protein NEK7; average of three replicates. The procedure, abridged: as §1

Experiment [8] concerns the target T8, ~100 representative kinases (Homo sapiens, UniProt O96017).
T8 construct: Recombinant protein kinase domains with a concentration of 2 μM
The following applies: Protein CHEK2; average of three replicates. In a few lines: as §1

Experiment [9] concerns the target T9, ~100 representative kinases (Homo sapiens, UniProt P49137).
T9 construct: Recombinant protein kinase domains with a concentration of 2 μM
As to conditions: protein MAPKAPK2; average of three replicates. The procedure, abridged:
as §1

Experiment [10] deals with T10, ~100 representative kinases (Homo sapiens, UniProt Q13554).
T10 construct: Recombinant protein kinase domains with a concentration of 2 μM
T10 sequence (Q13554 whole entry, the tested form may be a part): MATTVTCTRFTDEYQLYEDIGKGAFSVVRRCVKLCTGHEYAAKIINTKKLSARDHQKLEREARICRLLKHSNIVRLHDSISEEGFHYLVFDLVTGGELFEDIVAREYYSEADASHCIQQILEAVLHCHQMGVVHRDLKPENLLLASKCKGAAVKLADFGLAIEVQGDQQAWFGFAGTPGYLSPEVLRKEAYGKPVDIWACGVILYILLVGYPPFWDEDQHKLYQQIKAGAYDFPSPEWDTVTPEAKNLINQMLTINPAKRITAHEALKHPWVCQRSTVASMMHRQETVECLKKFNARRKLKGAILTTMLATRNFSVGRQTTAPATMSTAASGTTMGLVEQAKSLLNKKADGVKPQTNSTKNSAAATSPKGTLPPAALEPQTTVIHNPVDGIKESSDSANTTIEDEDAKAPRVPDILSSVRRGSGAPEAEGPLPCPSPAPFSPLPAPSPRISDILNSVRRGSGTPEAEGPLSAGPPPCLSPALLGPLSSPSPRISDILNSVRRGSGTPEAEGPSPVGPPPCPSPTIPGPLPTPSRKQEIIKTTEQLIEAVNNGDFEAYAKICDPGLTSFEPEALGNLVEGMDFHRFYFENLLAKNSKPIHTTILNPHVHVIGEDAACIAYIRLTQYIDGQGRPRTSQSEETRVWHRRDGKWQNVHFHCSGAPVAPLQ
As to conditions: Protein CAMK2B; average of three replicates. In a few lines: as §1

T1 sequence (P19784 whole entry, the tested form may be a part): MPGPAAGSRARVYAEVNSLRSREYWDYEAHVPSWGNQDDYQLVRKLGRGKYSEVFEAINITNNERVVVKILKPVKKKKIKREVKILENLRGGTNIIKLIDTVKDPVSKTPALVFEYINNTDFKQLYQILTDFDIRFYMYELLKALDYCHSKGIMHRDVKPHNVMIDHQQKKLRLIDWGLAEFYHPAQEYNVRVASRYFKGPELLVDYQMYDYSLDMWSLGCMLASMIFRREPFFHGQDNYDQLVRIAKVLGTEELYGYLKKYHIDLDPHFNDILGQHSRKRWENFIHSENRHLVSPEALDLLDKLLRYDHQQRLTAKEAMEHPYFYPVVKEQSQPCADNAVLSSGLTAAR
T9 sequence (P49137 whole entry, the tested form may be a part): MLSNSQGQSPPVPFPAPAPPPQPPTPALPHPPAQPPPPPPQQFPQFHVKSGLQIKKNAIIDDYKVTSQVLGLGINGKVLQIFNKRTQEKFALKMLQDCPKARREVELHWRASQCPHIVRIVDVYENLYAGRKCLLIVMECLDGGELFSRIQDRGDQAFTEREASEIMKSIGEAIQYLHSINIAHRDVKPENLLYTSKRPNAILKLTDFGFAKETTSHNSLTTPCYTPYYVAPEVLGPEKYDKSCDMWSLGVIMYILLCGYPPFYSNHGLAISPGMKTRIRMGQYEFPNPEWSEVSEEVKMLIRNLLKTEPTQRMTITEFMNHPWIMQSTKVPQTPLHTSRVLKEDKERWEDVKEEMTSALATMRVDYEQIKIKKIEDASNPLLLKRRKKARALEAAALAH
T8 sequence (O96017 whole entry, the tested form may be a part): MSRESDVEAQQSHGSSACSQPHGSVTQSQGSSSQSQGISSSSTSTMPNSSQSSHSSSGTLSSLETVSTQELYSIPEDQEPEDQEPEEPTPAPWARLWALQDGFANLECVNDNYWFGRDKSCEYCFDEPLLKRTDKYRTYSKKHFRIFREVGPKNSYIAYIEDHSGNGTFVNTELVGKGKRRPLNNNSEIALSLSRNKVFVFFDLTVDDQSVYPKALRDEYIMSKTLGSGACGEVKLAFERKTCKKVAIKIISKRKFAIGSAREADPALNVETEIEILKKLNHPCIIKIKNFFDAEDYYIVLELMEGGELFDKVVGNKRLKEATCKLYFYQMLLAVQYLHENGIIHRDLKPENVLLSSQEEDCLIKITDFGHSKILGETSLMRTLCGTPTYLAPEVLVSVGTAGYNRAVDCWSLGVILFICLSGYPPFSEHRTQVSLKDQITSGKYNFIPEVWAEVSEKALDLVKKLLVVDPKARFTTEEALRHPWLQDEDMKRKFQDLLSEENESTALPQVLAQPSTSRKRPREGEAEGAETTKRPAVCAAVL

As to `Cc1ccc(NC(=O)C2(C(=O)Nc3cccc(-c4c[nH]c5ncnc(N6CCOCC6)c45)c3)CC2)cc1` [Compound 14], the dTm in [1] came out at 5.87 K; in experiment [2], 0.85 K; in experiment [3], 4.82 K; in experiment [4], 3.63 K; in [5] it was 4.17 K; in [6], 5.95 K. Moreover, the dTm in experiment [7] is -0.37 K; in experiment [8], 3.90 K; in [9], -0.14 K; in experiment [10] it was 0.96 K.

Take `CCc1ccc(NC(=O)C2(C(=O)Nc3cccc(-c4c[nH]c5ncnc(N6CCOCC6)c45)c3)CC2)cc1` [Compound 15]: the dTm in [1] came to 1.24 K; in experiment [2], 2.27 K; in experiment [3], 5.52 K; in [4], 3.72 K; in [5], 0.00 K; in experiment [6], 4.66 K. In addition, the dTm in experiment [7] is listed as -0.42 K; in experiment [8], 6.14 K; in experiment [9], 0.05 K; in [10], 1.13 K.

In the case of `COc1ccc(NC(=O)C2(C(=O)Nc3cccc(-c4c[nH]c5ncnc(N6CCOCC6)c45)c3)CC2)cc1` [Compound 16], the dTm worked out at 4.77 K in experiment [1]; 2.18 K in experiment [2]; 2.68 K in experiment [3]; 0.79 K in experiment [4]; 2.53 K in experiment [5]; 4.89 K in experiment [6]. Besides, the dTm in experiment [7] is reported as -0.67 K; in [8], 2.18 K; in experiment [9], -0.05 K; in [10], 0.11 K.

As for `O=C(Nc1cccc(-c2c[nH]c3ncnc(N4CCOCC4)c23)c1)C1(C(=O)Nc2ccc(F)c(F)c2)CC1` [Compound 17], the dTm in [1] turned out to be 8.40 K; in experiment [2] it was 2.00 K; in experiment [3] it was 5.12 K; in experiment [4] it was 2.50 K; in experiment [5], 3.85 K; in [6], 7.72 K. For the same compound, the dTm in experiment [7] is 1.01 K; in experiment [8] it was 4.07 K; in [9], -0.12 K; in [10], 1.54 K.

`O=C(Nc1cccc(-c2c[nH]c3ncnc(N4CCOCC4)c23)c1)C1(C(=O)Nc2ccc(F)c(Cl)c2)CC1` [Compound 18]: the dTm in experiment [1] amounted to 1.36 K; in [2] it was 1.39 K; in experiment [3], 6.48 K; in experiment [4], 3.41 K; in experiment [5], 0.43 K; in experiment [6], 8.58 K. Also, the dTm in [7] is 1.61 K; in experiment [8], 5.34 K; in experiment [9], 0.22 K; in experiment [10], 2.15 K.

For the compound `O=C(Nc1cccc(-c2c[nH]c3ncnc(N4CCOCC4)c23)c1)C1(C(=O)Nc2ccc(F)c(Br)c2)CC1` [Compound 19], the dTm in experiment [1] is 7.91 K; in experiment [2], -0.29 K; in experiment [3], 0.00 K; in [4], 1.85 K; in [5], 3.75 K; in experiment [6] it was 8.80 K. Moreover, the dTm in [7] is -1.14 K; in experiment [8] it was 3.80 K; in [9], -0.94 K; in experiment [10] it was 2.00 K.

For the compound `Cc1cc(NC(=O)C2(C(=O)Nc3cccc(-c4c[nH]c5ncnc(N6CCOCC6)c45)c3)CC2)ccc1F` [Compound 20], the dTm was 1.33 K in [1]; 1.19 K in experiment [2]; 7.44 K in [3]; 4.46 K in experiment [4]; -2.83 K in experiment [5]; 8.74 K in [6]. For the same compound, the dTm in experiment [7] was 0.98 K; in experiment [8] it was 5.31 K; in experiment [9], -0.28 K; in [10], 1.78 K.

On to `COc1cc(NC(=O)C2(C(=O)Nc3cccc(-c4c[nH]c5ncnc(N6CCOCC6)c45)c3)CC2)ccc1F` [Compound 21], for which the dTm in experiment [1] is 3.16 K; in [2], 1.38 K; in [3] it was 3.89 K; in experiment [4], 1.66 K; in experiment [5] it was 4.43 K; in [6], 6.71 K. Moreover, the dTm in experiment [7] is 0.39 K; in [8], 4.32 K; in experiment [9] it was -0.29 K; in experiment [10] it was 1.15 K.

As for `CC(C)(C)c1cccc(NC(=O)C2(C(=O)Nc3cccc(-c4c[nH]c5ncnc(N6CCOCC6)c45)c3)CC2)c1` [Compound 22], the dTm in experiment [1] is recorded as 2.45 K; in experiment [2] it was 0.62 K; in [3] it was 5.49 K; in [4], -3.38 K; in experiment [5], 2.44 K; in [6], 4.67 K. The dTm was 0.18 K in [7], 3.64 K in experiment [8], -0.67 K in experiment [9] and 2.01 K in [10].

For `O=C(Nc1cccc(-c2c[nH]c3ncnc(N4CCOCC4)c23)c1)C1(C(=O)Nc2ccc(F)cc2F)CC1` [Compound 23], the dTm was found to be 1.02 K in experiment [1]; 1.54 K in experiment [2]; 4.75 K in [3]; 2.11 K in experiment [4]; 3.92 K in experiment [5]; 7.18 K in experiment [6]. For the same compound, the dTm in experiment [7] is recorded as 0.03 K; in experiment [8] it was 3.32 K; in experiment [9] it was -0.35 K; in [10], 0.18 K.

As to `Cc1cc(F)ccc1NC(=O)C1(C(=O)Nc2cccc(-c3c[nH]c4ncnc(N5CCOCC5)c34)c2)CC1` [Compound 24], the dTm in experiment [1] is -0.63 K; in [2], 1.66 K; in [3] it was 4.47 K; in [4] it was 1.63 K; in experiment [5] it was 4.10 K; in [6] it was 6.47 K. The dTm in experiment [7] is 0.20 K; in [8] it was 2.66 K; in experiment [9], -0.55 K; in experiment [10], 0.23 K.
